Settings: relaxation calorimetry - Quantum Design PPMS; for molar entropy: 101.33 kPa

O=P([O-])([O-])[O-].[Fe+3] [iron(III) phosphate]
Settings	molar entropy [J/K/mol]
1 K, Crystal 2	0.001252
2 K, Crystal 2	0.01157
3 K, Crystal 2	0.0497
4 K, Crystal 2	0.1381
5 K, Crystal 2	0.2911
6 K, Crystal 2	0.5136
7 K, Crystal 2	0.8015
8 K, Crystal 2	1.143
9 K, Crystal 2	1.528
10 K, Crystal 2	1.948
11 K, Crystal 2	2.4
12 K, Crystal 2	2.878
13 K, Crystal 2	3.381
14 K, Crystal 2	3.904
15 K, Crystal 2	4.446
16 K, Crystal 2	5.012
17 K, Crystal 2	5.603
18 K, Crystal 2	6.223
19 K, Crystal 2	6.877
20 K, Crystal 2	7.545
25 K, Crystal 1	11.49
30 K, Crystal 1	14.26
35 K, Crystal 1	16.51
40 K, Crystal 1	18.7
45 K, Crystal 1	20.89
50 K, Crystal 1	23.09
55 K, Crystal 1	25.3
60 K, Crystal 1	27.52
65 K, Crystal 1	29.74
70 K, Crystal 1	31.97
75 K, Crystal 1	34.2
80 K, Crystal 1	36.44
85 K, Crystal 1	38.66
90 K, Crystal 1	40.88
95 K, Crystal 1	43.09
100 K, Crystal 1	45.3
110 K, Crystal 1	49.7
120 K, Crystal 1	54.04
130 K, Crystal 1	58.32
140 K, Crystal 1	62.54
150 K, Crystal 1	66.7
160 K, Crystal 1	70.79
170 K, Crystal 1	74.82
180 K, Crystal 1	78.8
190 K, Crystal 1	82.72
200 K, Crystal 1	86.59
210 K, Crystal 1	90.41
220 K, Crystal 1	94.19
230 K, Crystal 1	97.92
240 K, Crystal 1	101.61
250 K, Crystal 1	105.25
260 K, Crystal 1	108.86
270 K, Crystal 1	112.42
273.15 K, Crystal 1	113.53
280 K, Crystal 1	115.93
290 K, Crystal 1	119.41
298.15 K, Crystal 1	122.21
300 K, Crystal 1	122.84

Settings	Triple point temperature [K]
Crystal 2	25

Source: the NIST ThermoML archive (doi:10.1016/j.jct.2013.02.017)
